Results published in US8293240B2, “Method of treating drug-resistant cancer” (The Regents of the University of Colorado, priority 2004, dated 2012).

Assays:
Assay type in all cases: cell-based
[1] = tested on: drug sensitive L1210 cells; test: cell-surface Fas expression by flow cytometry, L1210
Description: Cell Surface Staining. Non-permeabilized cells were stained with antibodies to the cell surface receptors Fas (CD95) (Pharmingen) or with antibodies to uncoupling proteins (anti-UCP2 antibody) (Alpha Diagnostic International). Antibodies for both the isotype control and actual stain were added to the cell suspension, mixed, and then placed on ice for and incubation of 25 minutes in the dark. Subsequently the cells were centrifuged at 300×g for 5 minutes and the supernatant removed. The cells were washed one time with 100 μL of PBS/2.5% FBS and then transferred into flow cyotmetric tubes containing 500 μL of PBS/2.5% FBS for analysis.
Geometric Mean Fluorescence. When analyzing data on Cell Quest software, a geometric mean value will be given for each histogram plotted. Once the stained sample was plotted against the control (isotype or unstained), geometric mean fluorescence values were obtained for both histogram peaks. The stained control sample value was subtracted from sample to identify the actual fluorescence of the stained sample over that of the control.
Drug sensitive L1210 cells and drug resistant L1210/DDP cells were cultured with etomoxir for 24 hours (Tx indicates treatment with etomoxir). The level of cell-surface Fas was determined using fluorochrome conjugated anti-Fas antibodies and flow cytometry. The Fas levels are measured relative to a control for staining artifacts. […]

L1210 DDP cells = test: mitochondrial membrane potential (MitoTracker), L1210 DDP; settings: 24 hours of incubation, FIG. 11
Description: (§1) Flow Cytometry. Cells were harvested, counted, and resuspended at 10^6 cells/100 μl of PBS containing 2.5% fetal calf serum in preparation for flow cytometric analysis. Cells were stained for intracellular H202 using 6-carboxy-2′,7′-dichlorodihydrofluorescein diacetate (DCF-DA, Molecular Probes, Eugene, Oreg.). Briefly, cells were incubated at 37° with 1 mM DCF-DA for 20 minutes, washed twice in PBS containing 2.5% fetal calf serum and analyzed flow cytometrically. Mitochondrial membrane potential was assessed using Mitotracker Red (CM-H2XROS, Molecular Probes, Eugene, Oreg.). […] The cells were incubated at 37° for 20 minutes, washed twice in PBS containing 2.5% fetal calf serum and analyzed flow cytometrically. Data were acquired on a Coulter Elite Epics or Excel flow cytometer (Coulter, Hialeah, Fla.) and analyzed with CellQuest software, (Becton Dickinson, San Jose, Calif.). […] Each sample population was classified for cell size (forward scatter) and complexity (side scatter), gated on a population of interest and evaluated using 5,000 cells. […]
(§2) We measured the effects of etomoxir on metabolism by measuring mitochondrial membrane potential with a fluorescent dye (Mitotracker Red, Molecular Probes, Eugene, Oreg.) which fluoresces as a function of mitochondrial potential. […]

L1210 cells = test: DCFDA staining (reactive intermediates), L1210; settings: L1210, 24 hours of incubation, FIG. 12A
Description: as §1, §2

[2] = tested on: human leukemia RU937 cells; test: mitochondrial membrane potential (MitoTracker), RU937; settings: RU937, 24 hours of incubation, FIG. 13
Description: Flow Cytometry. Cells were harvested, counted, and resuspended at 10^6 cells/100 μl of PBS containing 2.5% fetal calf serum in preparation for flow cytometric analysis. Cells were stained for intracellular H202 using 6-carboxy-2′,7′-dichlorodihydrofluorescein diacetate (DCF-DA, Molecular Probes, Eugene, Oreg.). Briefly, cells were incubated at 37° with 1 mM DCF-DA for 20 minutes, washed twice in PBS containing 2.5% fetal calf serum and analyzed flow cytometrically. Mitochondrial membrane potential was assessed using Mitotracker Red (CM-H2XROS, Molecular Probes, Eugene, Oreg.). The cells were resuspended in PBS containing 2.5% fetal calf serum containing a final concentration of 0.5 micromolar Mitotracker dye. The cells were incubated at 37° for 20 minutes, washed twice in PBS containing 2.5% fetal calf serum and analyzed flow cytometrically. Data were acquired on a Coulter Elite Epics or Excel flow cytometer (Coulter, Hialeah, Fla.) and analyzed with CellQuest software, (Becton Dickinson, San Jose, Calif.). […] Each sample population was classified for cell size (forward scatter) and complexity (side scatter), gated on a population of interest and evaluated using 5,000 cells. […]
The effects of etomoxir on human leukemia RU937 cells was determined. […]

## CCOC(=O)C1(CCCCCCOc2ccc(Cl)cc2)CO1 (centres unmarked) [etomoxir, 2-(6-(4-chlorophenoxy)-hexyl)-oxirane-2-carboxylic acid ethyl ester]
[1]; L1210, cultured with etomoxir for 24 hours
  cell-surface Fas expression: significant increases in cell surface Fas
[1]; L1210, etomoxir with methotrexate, FIG. 8
  Fas expression, combination with methotrexate: increases the methotrexate-induced increases in Fas
L1210 DDP cells
  mitochondrial membrane potential (MitoTracker): increase the mitochondrial membrane potential
L1210 cells
  free radicals (reactive intermediates), DCFDA staining: increase in free radicals
[2]
  mitochondrial membrane potential (MitoTracker): increased the levels of mitochondrial membrane potential
